Experimental data taken from patent publication US20260217693A1, “SRPK1 INHIBITORS AND METHODS OF USE” (ALLIANTHERA (SUZHOU) BIOPHARMACEUTICAL CO., LTD., priority 2023, published 2026).

The compounds below were run against SRPK1 (Homo sapiens, UniProt Q96SB4) (assay: SRPK1 assay, Method 1 (ADP-Glo luminescence)). Conditions: Method 1 (no asterisk): substrate Human SRSF1/SF2, 25° C. for 90 min, test compounds 30 μM top, 3-fold, duplicate.
Type: biochemical
Experimental: The SPRK1 assay was performed as follows:
Method 1: The assay buffer was prepared. The reference compound was diluted to 10 mM. The test compounds were prepared at a concentration of 30 mM. Fifteen nL of compounds/DMSO were transferred to a multi-well plate. Then, 7.5 ul enzyme SRPK1 was added to each well, the plate was spun down at 1000 rpm and centrifuged for 30 sec. Then, 7.5 ul substrate Human SRSF1/SF2 was added to each well, the plate spun down at 1000 rpm and centrifuged for 30 sec. The plate was then incubated at 25° C. for 90 min. After 90 min, 5 μl of ADP-Glo™ Reagent was added to each well and the plate incubated at room temperature for 60 minutes. Then, 10 μl of Kinase Detection Reagent was added to each well and the plate incubate at room temperature for 60 minutes. The luminescence of each well was recorded on Envision. The test compounds were at 30 μM top, 3-fold, in duplicate, and the final concentration of DMSO was 0.1%.
All assays were performed using Method 1, except where indicated with an asterisk (*) in the below table, indicating Method 2 was used.

Sequence of SRPK1 (Q96SB4 whole entry): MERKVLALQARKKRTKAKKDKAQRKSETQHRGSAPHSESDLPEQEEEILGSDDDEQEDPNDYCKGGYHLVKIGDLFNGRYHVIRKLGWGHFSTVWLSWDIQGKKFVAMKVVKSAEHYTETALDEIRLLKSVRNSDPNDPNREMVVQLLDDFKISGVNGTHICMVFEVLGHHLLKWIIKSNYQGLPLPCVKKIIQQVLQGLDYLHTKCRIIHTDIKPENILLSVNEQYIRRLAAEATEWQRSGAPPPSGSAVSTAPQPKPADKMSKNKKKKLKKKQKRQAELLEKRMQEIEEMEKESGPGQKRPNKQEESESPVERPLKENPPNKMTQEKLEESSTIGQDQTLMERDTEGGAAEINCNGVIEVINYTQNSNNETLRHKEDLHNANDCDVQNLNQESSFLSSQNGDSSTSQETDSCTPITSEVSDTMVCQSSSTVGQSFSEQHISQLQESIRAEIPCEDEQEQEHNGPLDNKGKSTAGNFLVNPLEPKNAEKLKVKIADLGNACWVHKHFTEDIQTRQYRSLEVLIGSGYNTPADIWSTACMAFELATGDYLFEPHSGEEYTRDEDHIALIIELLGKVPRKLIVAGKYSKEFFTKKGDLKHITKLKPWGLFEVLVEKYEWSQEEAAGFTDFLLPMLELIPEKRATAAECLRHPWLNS

Compound | IC50 [nM]
O=C(Nc1cc(C(F)(F)F)cnc1N1CCC(F)(F)CC1)c1ccc(-c2ccncc2)o1 [Compound 070] | 4640
CN1CCC(c2ncc(C(F)(F)F)cc2NC(=O)c2ccc(C3CCOCC3)o2)CC1 [Compound 071, N-(2-(1-methylpiperidin-4-yl)-5-(trifluoromethyl)pyridin-3-yl)-5-(tetrahydro-2H-pyran-4-yl) furan-2-carboxamide] | 6870
O=C(Nc1cc(C(F)(F)F)cnc1N1CCCC(O)C1)c1ccc(C2CCOCC2)o1 (stereo not shown) [Compound 072] | 754
O=C(Nc1cc(C(F)(F)F)cnc1N1CCC2(CCNC2=O)CC1)c1ccc(C2CCOCC2)o1 [Compound 073] | 59.3
O=C(Nc1cc(C(F)(F)F)cnc1N1CCC(O)CC1)c1ccc(-c2cnccn2)o1 [Compound 074, N-(2-(4-hydroxypiperidin-1-yl)-5-(trifluoromethyl)pyridin-3-yl)-5-(pyrazin-2-yl) furan-2-carboxamide] | 641
C[C@H]1C[C@@H](O)CCN1c1ncc(C(F)(F)F)cc1NC(=O)c1ccc(C2CCOCC2)o1 [Compound 075] | 13.1
C[C@H]1C[C@H](O)CCN1c1ncc(C(F)(F)F)cc1NC(=O)c1ccc(C2CCOCC2)o1 [Compound 076] | 14.2
O=C(Nc1cc(C(F)(F)F)cnc1N1CCC(O)CC1)c1ccc(C(F)(F)F)cn1 [Compound 077] | > 30000
O=C(Nc1cc(C(F)(F)F)cnc1N1CCc2n[nH]cc2C1)c1ccc(C2CCOCC2)o1 [Compound 078] | 27.9
O=C1CCC2(CCN(c3ncc(C(F)(F)F)cc3NC(=O)c3ccc(C4CCOCC4)o3)CC2)N1 [Compound 081] | 215
O=C(Nc1cc(C(F)(F)F)cnc1N1CCC2(CCOC2=O)CC1)c1ccc(C2CCOCC2)o1 [Compound 082] | 55.5
O=C(Nc1cc(C(F)(F)F)cnc1N1CCC(CO)CC1)c1ccc(C2CCOCC2)o1 [Compound 083] | 39.8
O=C(Nc1cc(C(F)(F)F)cnc1N1CCC(O)CC1)c1ccc(-c2cc[nH]n2)o1 [Compound 084] | 60.7
CC(=O)N1CCN(c2ncc(C(F)(F)F)cc2NC(=O)c2ccc(C3CCOCC3)o2)CC1 [Compound 085] | 2050
O=C(Nc1cc(C(F)(F)F)cnc1N1CCC(O)CC1)c1cccc(Cl)n1 [Compound 087] | 249
NC(=O)C1CCN(c2ncc(C(F)(F)F)cc2NC(=O)c2ccc(C3CCOCC3)o2)CC1 [Compound 088] | 71.7
O=C(Nc1cc(C(F)(F)F)cnc1N1CCC(O)CC1)c1ccc(F)cn1 [Compound 089] | 878
COc1ccc(C(=O)Nc2cc(C(F)(F)F)cnc2N2CCC(O)CC2)nc1 [Compound 090] | 1380
O=C(Nc1cc(C(F)(F)F)cnc1N1CCC(O)CC1)c1cc(Cl)ccn1 [Compound 091] | > 30000
O=C(Nc1cc(C(F)(F)F)cnc1N1CCC(O)CC1)c1ccc(Cl)cn1 [Compound 093] | 1260

Compound | IC50 [nM]
O=C(Nc1cc(C(F)(F)F)cnc1N1CCC(O)CC1)c1cc(-c2cn[nH]c2)ccn1 [Compound 094, N-[2-(4-hydroxy-1-piperidyl)-5-(trifluoromethyl)-3-pyridyl]-4-(1H-pyrazol-4-yl)pyridine-2-carboxamide] | > 30000
NC(=O)C1(O)CCN(c2ncc(C(F)(F)F)cc2NC(=O)c2ccc(C3CCOCC3)o2)CC1 [Compound 096, 4-hydroxy-1-[3-[(5-tetrahydropyran-4-ylfuran-2-carbonyl)amino]-5-(trifluoromethyl)-2-pyridyl]piperidine-4-carboxamide] | 18.3
O=C(O)c1ccc(C(=O)Nc2cc(C(F)(F)F)cnc2N2CCC(O)CC2)o1 [Compound 098] | 871
O=C(Nc1cc(C(F)(F)F)cnc1N1CCC(O)CC1)c1cccc(-c2cn[nH]c2)n1 [Compound 100] | 59.7
O=C(Nc1cc(C(F)(F)F)cnc1N1CCC(O)CC1)c1cnn(C2CCOCC2)c1 [Compound 101] | > 30000
O=C1C=C(c2ccc(C(=O)Nc3cc(C(F)(F)F)cnc3N3CCC(O)CC3)o2)CCO1 [Compound 102] | 340
O=C(Nc1cc(C(F)(F)F)cnc1N1CCC(O)CC1)c1ccn(C2CCOCC2)n1 [Compound 103] | 136
O=C(Nc1cc(C(F)(F)F)cnc1N1CCC(O)CC1)c1ccc(-c2c[nH]cn2)o1 [Compound 104] | 556
O=C(Nc1cc(C(F)(F)F)cnc1N1CCC(O)CC1)c1ccc(-c2nc[nH]n2)o1 [Compound 105] | 1530
Nc1n[nH]cc1-c1ccc(C(=O)Nc2cc(C(F)(F)F)cnc2N2CCC(O)CC2)o1 [Compound 106, 5-(3-amino-1H-pyrazol-4-yl)-N-[2-(4-hydroxy-1-piperidyl)-5-(trifluoromethyl)-3-pyridyl]furan-2-carboxamide] | 142
C[C@@H]1C[C@@H](O)CCN1c1ncc(C(F)(F)F)cc1NC(=O)c1ccc(Br)o1 [Compound 107, 5-bromo-N-[2-[(2R,4S)-4-hydroxy-2-methyl-1-piperidyl]-5-(trifluoromethyl)-3-pyridyl]furan-2-carboxamide] | 746
O=C(Nc1cc(C(F)(F)F)cnc1N1CCC(O)CC1)c1ccc(-c2cn[nH]n2)o1 [Compound 108] | 14.8
C[C@@H]1C[C@H](O)CCN1c1ncc(C(F)(F)F)cc1NC(=O)c1ccc(Br)o1 [Compound 109] | 746
C[C@@H]1C[C@H](O)CCN1c1ncc(C(F)(F)F)cc1NC(=O)c1ccc(-c2cn[nH]c2)o1 [Compound 110] | 16.1
C[C@@H]1C[C@H](O)CCN1c1ncc(C(F)(F)F)cc1NC(=O)c1ccc(-c2ccnc(N)c2)o1 [Compound 111] | 39.4
C[C@@H]1C[C@@H](O)CCN1c1ncc(C(F)(F)F)cc1NC(=O)c1ccc(-c2cn[nH]c2)o1 [Compound 113] | > 30000
C[C@@H]1C[C@@H](O)CCN1c1ncc(C(F)(F)F)cc1NC(=O)c1ccc(-c2ccnc(N)c2)o1 [Compound 114] | > 30000
O=C(Nc1cc(C(F)(F)F)cnc1N1CCc2[nH]ncc2C1)c1ccc(Br)o1 [Compound 115] | > 30000
C[C@@H]1C[C@@H](O)CCN1c1ncc(C2CC2)cc1NC(=O)c1ccc(Br)o1 [Compound 116] | > 30000
C#Cc1ccc(C(=O)Nc2cc(C(F)(F)F)cnc2N2CCC(O)CC2)o1 [Compound 117] | > 30000

Compound | IC50 [nM]
C[C@@H]1C[C@@H](O)CCN1c1ncc(C2CC2)cc1NC(=O)c1ccc(-c2ccnc(N)c2)o1 [Compound 119] | > 30000
O=C(Nc1cc(C2CC2)cnc1N1CCc2[nH]ncc2C1)c1ccc(Br)o1 [Compound 120] | > 30000
O=C(Nc1cc(C2CC2)cnc1N1CCc2[nH]ncc2C1)c1ccc(-c2cn[nH]c2)o1 [Compound 121] | > 30000
Nc1cc(-c2ccc(C(=O)Nc3cc(C4CC4)cnc3N3CCc4[nH]ncc4C3)o2)ccn1 [Compound 122] | > 30000
O=C(Nc1cc(C(F)(F)F)cnc1N1CCc2[nH]ncc2C1)c1ccc(-c2cn[nH]c2)o1 [Compound 123] | > 30000
Nc1cc(-c2ccc(C(=O)Nc3cc(C(F)(F)F)cnc3N3CCc4[nH]ncc4C3)o2)ccn1 [Compound 124] | > 30000
O=C(Nc1cc(C2CC2)cnc1N1CCC(O)CC1)c1ccc(-c2cn[nH]c2)cn1 [Compound 125] | > 30000
C[C@@H]1C[C@H](O)CCN1c1ncc(C2CC2)cc1NC(=O)c1ccc(Br)o1 [Compound 126] | > 30000
C[C@@H]1C[C@H](O)CCN1c1ncc(C2CC2)cc1NC(=O)c1ccc(-c2cn[nH]c2)o1 [Compound 127] | > 30000
C[C@@H]1C[C@H](O)CCN1c1ncc(C2CC2)cc1NC(=O)c1ccc(-c2ccnc(N)c2)o1 [Compound 128] | > 30000
O=C(Nc1cc(C(F)(F)F)cnc1N1CCC(O)CC1)c1ccc(-c2cn[nH]c2)cc1 [Compound 129] | > 30000
Nc1cc(-c2ccc(C(=O)Nc3cc(C(F)(F)F)cnc3N3CCc4[nH]ncc4C3)o2)cc(N)n1 [Compound 130] | > 30000
Nc1cc(-c2ccc(C(=O)Nc3cc(C4CC4)cnc3N3CCc4[nH]ncc4C3)o2)cc(N)n1 [Compound 131] | > 30000
C[C@@H]1C[C@@H](O)CCN1c1ncc(C(F)(F)F)cc1NC(=O)c1ccc(-c2cc(N)nc(N)c2)o1 [Compound 132] | > 30000
C[C@@H]1C[C@H](O)CCN1c1ncc(C(F)(F)F)cc1NC(=O)c1ccc(-c2cc(N)nc(N)c2)o1 [Compound 133] | > 30000
C[C@@H]1C[C@@H](O)CCN1c1ncc(C2CC2)cc1NC(=O)c1ccc(-c2cc(N)nc(N)c2)o1 [Compound 134] | > 30000
CC1(O)CCN(c2ncc(C3CC3)cc2NC(=O)c2ccc(-c3ccncc3)o2)CC1 [Compound 136, N-(5-cyclopropyl-2-(4-hydroxy-4-methylpiperidin-1-yl)pyridin-3-yl)-5-(pyridin-4-yl) furan-2-carboxamide] | 36
CC1(O)CCN(c2ncc(C3CC3)cc2NC(=O)c2ccc(C3CCOCC3)o2)CC1 [Compound 137, N-(5-Cyclopropyl-2-(4-hydroxy-4-methylpiperidin-1-yl)pyridin-3-yl)-5-(tetrahydro-2H-pyran-4-yl) furan-2-carboxamide] | 210
